The supplement of paper PMC13380429

Tests used:
Settings in all cases: 72 h
HepG2 [1] = test: relative viability EC50 (midpoint between 100% and the lowest measured viability); higher = less toxic
Caco-2 [2] = test: as above
U2OS [3] = test: as above
Calu-3 [4] = test: as above
HepG2 [5] = test: cell viability relative to DMSO; higher = less toxic
Caco-2 [6] = test: as above
U2OS [7] = test: as above
Calu-3 [8] = test: as above
HepG2 [9] = test: drug sensitivity score (DSS) for viability; higher = more toxic; extreme values may be limits of the assay
Caco-2 [10] = test: as above
U2OS [11] = test: as above
Calu-3 [12] = test: as above
Vero E6 [13] = test: as above
Vero E6 [14] = test: relative viability EC50 (midpoint between 100% and the lowest measured viability); higher = less toxic
Vero E6 [15] = test: cell viability relative to DMSO; higher = less toxic

Row | Compound | relative viability EC50 (HepG2 [1]) [µM] | relative viability EC50 (Caco-2 [2]) [µM] | relative viability EC50 (U2OS [3]) [µM] | relative viability EC50 (Calu-3 [4]) [µM] | cell viability (HepG2 [5]; 1 nM) [%] | cell viability (HepG2 [5]; 10 nM) [%] | cell viability (HepG2 [5]; 100 nM) [%] | cell viability (HepG2 [5]; 1000 nM) [%] | cell viability (HepG2 [5]; 10000 nM) [%] | cell viability (Caco-2 [6]; 1 nM) [%] | cell viability (Caco-2 [6]; 10 nM) [%] | cell viability (Caco-2 [6]; 100 nM) [%] | cell viability (Caco-2 [6]; 1000 nM) [%] | cell viability (Caco-2 [6]; 10000 nM) [%] | cell viability (U2OS [7]; 1 nM) [%] | cell viability (U2OS [7]; 10 nM) [%] | cell viability (U2OS [7]; 100 nM) [%] | cell viability (U2OS [7]; 1000 nM) [%] | cell viability (U2OS [7]; 10000 nM) [%] | cell viability (Calu-3 [8]; 1 nM) [%] | cell viability (Calu-3 [8]; 10 nM) [%] | cell viability (Calu-3 [8]; 100 nM) [%] | cell viability (Calu-3 [8]; 1000 nM) [%] | cell viability (Calu-3 [8]; 10000 nM) [%] | drug sensitivity score (HepG2 [9]) | drug sensitivity score (Caco-2 [10]) | drug sensitivity score (U2OS [11]) | drug sensitivity score (Calu-3 [12]) | drug sensitivity score (Vero E6 [13]) | relative viability EC50 (Vero E6 [14]) [µM] | cell viability (Vero E6 [15]; 1 nM) [%] | cell viability (Vero E6 [15]; 10 nM) [%] | cell viability (Vero E6 [15]; 100 nM) [%] | cell viability (Vero E6 [15]; 1000 nM) [%] | cell viability (Vero E6 [15]; 10000 nM) [%]
1 | COC(=O)N[C@H](C(=O)N1CCC[C@H]1c1ncc(-c2ccc(-c3ccc(-c4cnc([C@@H]5CCCN5C(=O)[C@@H](NC(=O)OC)C(C)C)[nH]4)cc3)cc2)[nH]1)C(C)C [daclatasvir] | > 10 | > 10 | > 10 | > 10 | 120 | 116 | 112 | 106 | 92 | 104 | 96.1 | 107 | 98.7 | 83.1 | 104 | 101 | 101 | 102 | 90.3 | 107 | 90.6 | 93.1 | 96.1 | 99.7 | 0 | 0.5 | 0 | 0 |  |  |  |  |  |  | 
2 | CN1C[C@@H]2C[C@H]1CN2c1cc2c(cc1F)c(=O)c(C(=O)O)cn2C1CC1 [danofloxacin] |  |  |  |  |  |  |  |  |  |  |  |  |  |  |  |  |  |  |  |  |  |  |  |  | 0 |  | 0 | 0 | 0 |  |  |  |  |  | 
3 | CCCCCCCCCC(=O)OC1(c2ccc(Cl)cc2)CCN(CCCC(=O)c2ccc(F)cc2)CC1 [haloperidol-decanoate] | > 10 | > 10 | > 10 | > 10 | 112 | 108 | 106 | 112 | 97.1 | 104 | 104 | 104 | 93.5 | 105 | 107 | 101 | 104 | 101 | 99.2 | 103 | 105 | 112 | 99.8 | 114 | 0 | 0 | 0 | 0 |  |  |  |  |  |  | 
4 | O=P1(NCCCl)OCCCN1CCCl (stereo not drawn) [ifosfamide] | > 10 | > 10 |  | > 10 | 107 | 98.1 | 95.9 | 102 | 109 | 104 | 107 | 94.1 | 95.4 | 101 |  |  |  |  |  | 95.2 | 104 | 97.7 | 95.5 | 88.7 | 0 | 0 |  | 0 |  |  |  |  |  |  | 
5 | CC(=O)N(CC(O)CN(C(C)=O)c1c(I)c(C(=O)NCC(O)CO)c(I)c(C(=O)NCC(O)CO)c1I)c1c(I)c(C(=O)NCC(O)CO)c(I)c(C(=O)NCC(O)CO)c1I (stereo not drawn) [iodixanol] | > 10 | > 10 | > 10 | > 10 | 107 | 99.2 | 108 | 102 | 105 | 96.9 | 102 | 87 | 102 | 102 | 95.4 | 101 | 95.6 | 108 | 97.5 | 88.1 | 107 | 95.9 | 97.2 | 96.3 | 0 | 0 | 0 | 0 |  |  |  |  |  |  | 
6 | Nc1nc(N)nc(-c2cc(Cl)ccc2Cl)n1 [irsogladine] | > 10 | > 10 | > 10 | > 10 | 89.4 | 93.9 | 94.6 | 93.5 | 105 | 101 | 99 | 101 | 102 | 108 | 105 | 97.3 | 101 | 100 | 99.2 | 112 | 93.7 | 91.5 | 110 | 99.1 | 0 | 0 | 0 | 0 |  |  |  |  |  |  | 
7 | CC(C)(C)c1cc(C(C)(C)C)c(NC(=O)c2c[nH]c3ccccc3c2=O)cc1O [ivacaftor] | > 10 | > 10 | > 10 | > 10 | 105 | 105 | 100 | 100 | 98.3 | 104 | 98.8 | 99.6 | 101 | 81.6 | 100 | 103 | 95.3 | 103 | 86.8 | 97.2 | 103 | 93.3 | 91.1 | 84.1 | 0 | 0.4 | 0.1 | 0.7 |  |  |  |  |  |  | 
8 | CCC[C@@H]1C[C@@H](C(=O)N[C@@H]([C@H]2O[C@H](SC)[C@H](O)[C@@H](O)[C@H]2O)[C@@H](C)O)N(C)C1 [lincomycin] |  | > 10 |  | > 10 |  |  |  |  |  | 111 | 94.2 | 107 | 97.2 | 111 |  |  |  |  |  | 99.5 | 92.6 | 99.1 | 98.7 | 103 |  | 0 |  | 0 | 0 | > 10 | 97.6 | 103 | 94.9 | 89.6 | 101
9 | C[C@@H](O)[C@H]1C(=O)N2C(C(=O)O)=C(S[C@@H]3CN[C@H](C(=O)N(C)C)C3)[C@H](C)[C@H]12 [meropenem] |  | > 10 | > 10 | > 10 |  |  |  |  |  | 83.8 | 99.6 | 91.3 | 111 | 84.3 | 101 | 102 | 99.9 | 104 | 102 | 96.1 | 109 | 88.9 | 104 | 98.5 |  | 0.1 | 0 | 0 |  |  |  |  |  |  | 
10 | O=S(=O)(F)Cc1ccccc1 [phenylmethylsulfonyl-fluoride] | > 10 | > 10 | > 10 | > 10 | 109 | 114 | 97.8 | 111 | 96.7 | 102 | 95.6 | 103 | 99.7 | 99.2 | 106 | 99.8 | 104 | 102 | 101 | 105 | 101 | 103 | 98.6 | 102 | 0 | 0 | 0 | 0 |  |  |  |  |  |  | 
11 | O=C1CNC(=O)CN1 [piperazinedione] | > 10 | > 10 | > 10 | > 10 | 102 | 94.9 | 96.4 | 100 | 103 | 98.3 | 102 | 98.9 | 99.4 | 94.8 | 99 | 99 | 97.4 | 101 | 99.8 | 91.8 | 99.4 | 91.8 | 93.4 | 94 | 0 | 0 | 0 | 0 | 2.1 |  | 99.5 | 96.4 | 102 | 91.4 | 74.7
12 | C=CC1=C(C)c2cc3[nH]c(cc4nc(cc5[nH]c(cc1n2)c(C)c5CCC(=O)O)C(CCC(=O)O)=C4C)c(C)c3C=C [protoporphyrin-IX] | > 10 | > 10 | > 10 | > 10 | 102 | 91.1 | 105 | 94.2 | 84.6 | 101 | 102 | 92.7 | 94.4 | 76.4 | 101 | 101 | 98.2 | 101 | 88.6 | 97.4 | 93.8 | 105 | 97.5 | 84.1 | 0.8 | 1.4 | 0 | 0.6 | 2.6 |  | 99.8 | 71.4 | 110 | 75.2 | 78.6
13 | CNC(=O)c1cc(Oc2ccc(NC(=O)Nc3ccc(Cl)c(C(F)(F)F)c3)c(F)c2)ccn1 [regorafenib] | 1.03 |  |  |  | 102 | 106 | 94.4 | 59.8 | 16.5 | 100 | 105 | 97 | 108 | 66.3 | 96.9 | 103 | 100 | 99.8 | 54.5 | 102 | 98.8 | 105 | 104 | 74.2 | 9.3 | 1.2 | 2.4 | 0.8 | 1.8 |  | 94.7 | 98.9 | 104 | 102 | 60.6
14 | O=C(O)c1ccccc1O [salicylic-acid] | > 10 | > 10 | > 10 | > 10 | 95.4 | 96.1 | 99.3 | 97 | 108 | 103 | 97 | 105 | 94.7 | 96.6 | 99.8 | 99.6 | 98.5 | 96.5 | 102 | 105 | 91.8 | 90.6 | 88.9 | 105 | 0 | 0 | 0 | 0 |  |  |  |  |  |  | 
15 | CC(C)(C)NCC(O)COc1ccc(NC(=O)NC2CCCCC2)cc1 (stereo not drawn) [talinolol] |  |  |  |  |  |  |  |  |  |  |  |  |  |  |  |  |  |  |  |  |  |  |  |  | 0 |  | 0 | 0 | 0 |  |  |  |  |  | 
16 | Cc1coc2c1C(=O)C(=O)c1c-2ccc2c1CCCC2(C)C [tanshinone-IIA] |  | > 10 |  | > 10 | 90.6 | 105 | 96.5 | 91.4 | 55.4 | 97.6 | 95.7 | 92.9 | 103 | 77 | 102 | 99.2 | 95.7 | 99.6 | 74.9 | 109 | 105 | 101 | 94.1 | 101 | 3.7 | 0.7 | 1 | 0 | 0 | > 10 | 106 | 104 | 103 | 101 | 97.4
17 | Cc1ccc(NC2=NCCN2)c(Cl)c1 [tolonidine] | > 10 | > 10 | > 10 | > 10 | 116 | 109 | 109 | 99 | 111 | 90.3 | 101 | 93.9 | 99 | 99.5 | 101 | 106 | 97.3 | 102 | 96.3 | 101 | 112 | 96.5 | 106 | 99.3 | 0 | 0 | 0 | 0 |  |  |  |  |  |  | 
18 | NC[C@H]1CC[C@H](C(=O)O)CC1 [tranexamic-acid] |  | > 10 |  | > 10 |  |  |  |  |  | 106 | 105 | 104 | 98.3 | 96.4 |  |  |  |  |  | 101 | 95.5 | 87.8 | 94.7 | 90.9 |  | 0 |  | 0 | 0 | > 10 | 98.1 | 101 | 105 | 94.4 | 103
